Test results as given in patent US20230190689A1, “METHODS AND COMPOSITIONS FOR INDUCING BROWN ADIPOGENESIS” (ENERGESIS PHARMACEUTICALS, INC., priority 2020, published 2023).
Counter-ions that a name gives are not always drawn.

What was measured:
[1] = tested on: CD34+ brown adipocyte progenitor cells; assay: Multiplexed TaqMan real-time PCR of UCP1 and PPARγ2 mRNA (normalized to cyclophilin A) to quantify differentiation of CD34+ cells into brown adipocytes; assay type: cell-based, human; conditions: in vitro; first screen at 10 μM, actives retested at 1 nM to 50 μM
Text: A robust method, previously disclosed, was used for detection of CD34+ cell differentiation into brown adipocytes by simultaneously quantifying mRNA species corresponding to the brown adipocyte marker UCP1, the adipocyte marker PPARγ2, and the “housekeeping” gene cyclophilin A which was used as the internal control.
This method permits analysis of a large number of samples to identify agents that enhance the differentiation of CD34+ cells into brown adipocytes. When differentiated into brown adipocytes, CD34+ cells express much higher levels of UCP1 and PPARγ2 mRNA for a given level of cyclophilin A. UCP1 and PPARγ2 mRNA levels normalized to cyclophilin A mRNA levels give an indication of the level of differentiation of the CD34+ cells into brown adipocytes, independent of the total number of cells in the sample.
Quantification of UCP1, PPARγ2 and cyclophilin A mRNA by multiplexed TaqMan real-time PCR was thus used to quantify differentiation of the CD34+ cells into brown adipocytes.
UCP1 is the key protein in brown adipocytes responsible for uncoupled respiration and is also highly specific for brown adipocyte differentiation. It is expressed exclusively by fully differentiated brown adipocytes and not by the CD34+ progenitor cells. We used a real-time semi-quantitative RT PCR-based assay for detection of UCP1 expression, in order to screen for brown adipocyte recruiters. […] The assay has the added advantage of allowing light microscopic visualization of the distinct morphological changes accompanying differentiation into brown adipocytes. This serves as further confirmation of differentiation.
(§1) Cells were seeded at 10,000 per cm^2 (48-well tissue culture, Chemglass #CLS-3500-048), cultured until confluency (1-4 days) at 37° C. in Endothelial cell growth medium-2 (EGM2) (BulletKit growth medium, Lonza #CC-3162) and until differentiation (6-12 more days). After 1-4 days in EGM2 media the cells were incubated with test agents (or positive controls) for 2-3 days (from day −3 or −2 to day 0). Rosiglitazone (1 μM) and rhBMP7 (6.3 nM) were used as reference agents (positive controls). Then (on day 0) the culture media (containing the test agents or positive controls) was removed, and minimal adipogenic medium (MDM) was added and the cells were left to differentiate of 6-12 days. The MDM media is a modification of the adipogenic media described by Rodriguez et al., and contains: DMEM/Ham's F-12 50/50 Mix (3.151 g/1, 17.5 mM D-glucose, 3.651 g/l L-glutamine) (Cellgro #10-090-CV), 5 μg/ml (0.86 μM) insulin, 1 μM dexamethasone, 100 μM 3-isobutyl-1-methylxanthine, 0.2 nM 3,3′,5-triiodo-L-thyronine, 10 μg/ml (127 nM) transferrin, and 1% penicillin-streptomycin. Adipocyte scores were determined by light microscopy and defined as the number of cells, on a per well basis, that contain multilocular lipid droplets, at the end of the differentiation of the cells, approximately 6 to 12 days following the end of compound treatment and switch into MDM media.
Total RNA was prepared from cells using PureLink RNA Isolation Kit (Invitrogen #12183-016). Alternatively, cells were simply lyzed by freezing (−80° C.). First strand cDNA were synthesized using the High Capacity cDNA Reverse Transcription kit (Applied Biosystems, Foster City, Calif.) and random primers.
Quantitative real-time PCR was performed using an Applied Biosystems StepOnePlus™ instrument, TaqMan Gene Expression Master Mix (Applied Biosystems #4369016), and custom TaqMan gene expression probes and primers for human uncoupling protein-1 “UCP1” (GenBank NM_021833) and for human peptidylprolyl isomerase A “cyclophilin A” (GenBank NM_021130).
Cyclophilin A was used as a control to account for any variations due to the efficiency of reverse transcription. Arbitrary units were determined by normalizing target mRNA levels to cyclophilin A mRNA levels (based on Cts).

CD34+ cells [2] = assay: Light microscopy of CD34+ cells for brown adipocyte differentiation (multilocular lipid-containing cells); assay type: cell-based, human; conditions: CD34+ cells 6 days following the end of compound treatment and switch into MDM media
Experimental: as §1
Pictures of cells were taken using a hand-held digital camera (Nikon Coolpix 950) and inverted microscope (Nikon TMS) used for cell culture observations; images were optimized using Paint.net version 4.0 functions for Auto-Level Brightness and Contrast.

CD34+ cells [3] = assay: Quantification of UCP1 protein by fluorescence immunohistochemistry (IHC); assay type: cell-based, human
Experimental: Culturing and differentiation of CD34+ cells into brown adipocytes were performed using adipogenic differentiation medium lacking (Minimal Differentiation Medium, MDM) or containing 1 μM rosiglitazone (Reference Differentiation Medium, RDM). After 15 days of differentiation cells were fixed with 4% Paraformaldehyde PBS pH 7.4, and incubated with a UCP1 antibody (Abcam ab23841) and Alexafluor 488 goat anti-rabbit antibody to quantify relative UCP1 levels (green) according to standard protocols. Prior to fixation of cells, nuclei were labeled with 5 μM DAPI (blue) for 10 minutes. Each treatment condition was evaluated in triplicate in a 96-well plate corresponding to approximately 360-480 cells for each data point in total. The InCell 1000 Developer Toolbox software was used to develop an automated cell detection script to measure UCP1 signal intensity, using the nuclei and cytoplasm detection algorithms. As a readout, total intensity of UCP1 signal within the cell was used, normalized to cell number.

DIO mice = assay: DIO mouse study of metabolic health, once-daily oral gavage for 28 to 56 days; assay type: in vivo, C57Bl/6 mice; conditions: oral gavage once a day, bezafibrate 60 mg/kg, oxaprozin 50 mg/kg, vs vehicle
Experimental: Obesity and insulin resistance, an early stage in the development of type 2 diabetes (or pre-diabetes), was induced in C57Bl/6 mice by feeding the mice with a high fat diet (Research diet, Cat #D12492, 60/a fat kcal) for 12 weeks starting at 6 weeks of age. The mice were maintained at 22-23° C. with abundant bedding material, maintaining the animals in an environmental temperature close to their thermoneutrality, starting 2 weeks prior to the dosing period and for the full dosing period with a 12 h/12 h light/dark cycle.
Mice were dosed once per day by oral gavage (200 μl per mouse), first for 3 days with the vehicle (PBS+0.5% CMC+0.1% Tween-80) as acclimation for running into the study, then with either vehicle alone or testing material dissolved in the vehicle for […] (4 to 8 weeks).
Body weight was recorded every 3 days, body composition (fat and lean mass with EchoMRI) was assessed at the end of the study (University of Cincinnati Mouse Metabolic Phenotyping Center), blood glucose level (measured with a glucometer) was monitored 3-5 days before (baseline) and at the end of the dosing period.
At the end of the dosing period, animals were fasted for 6 hours and euthanized by CO2, blood was collected, and plasma was isolated and saved at −20° C. Plasma glucose, insulin and leptin levels were assessed 3-5 days before (baseline) and at the end of the dosing period (mice were fasted for 6 hours before all plasma collection) (University of Cincinnati Mouse Metabolic Phenotyping Center). Insulin sensitivity was determined using the homeostasis model assessment of insulin resistance (HOMA-IR). HOMA-IR=(plasma insulin [microIU/ml] x plasma glucose [mM])/22.5.
The mice were maintained on a high fat diet (60% calories from fat) throughout the study. An overnight fast was performed the last night of the study in preparation for glucose tolerance testing.

SMILES	differentiation of brown adipocyte progenitor cells into brown adipocytes, as indicated by expression of UCP1 and PPARγ2 [1]	agents identified by quantification of UCP1 protein by fluorescence IHC (CD34+ cells [3])	also measured
COc1ccc2c(c1)C(=O)N(CCc1ccc(S(=O)(=O)NC(=O)NC3CCCCC3)cc1)C(=O)C2(C)C [gliquidone, Gliquidone]	promote the differentiation of brown adipocyte progenitor cells into brown adipocytes		brown adipocyte formation by light microscopy (CD34+ cells [2]): promote brown adipocyte formation
O=C(CCCN1CCC2(CC1)C(=O)NCN2c1ccccc1)c1ccc(F)cc1 [Spiperone]		identified using this technique	
O=C(O)c1cccnc1Nc1cccc(C(F)(F)F)c1 [Niflumic acid]	promote the differentiation of brown adipocyte progenitor cells into brown adipocytes		
Cc1ccc(Cl)c(Nc2ccccc2C(=O)O)c1Cl [Meclofenamate]	promote the differentiation of brown adipocyte progenitor cells into brown adipocytes		
CCCCC[C@H](O)/C=C/[C@H]1[C@H](O)CC(=O)[C@@H]1CCCCCCC(=O)O [alprostadil, Alprostadil]	promote the differentiation of brown adipocyte progenitor cells into brown adipocytes		brown adipocyte formation by light microscopy (CD34+ cells [2]): promote brown adipocyte formation
CCN(CC)CCNC(=O)c1cc(S(C)(=O)=O)ccc1OC [Tiapride hydrochloride]		identified using this technique	
CCOC(=O)Oc1c(OC)cc(C(=O)O[C@@H]2C[C@@H]3CN4CCc5c([nH]c6cc(OC)ccc56)[C@H]4C[C@@H]3[C@H](C(=O)OC)[C@H]2OC)cc1OC [Syrosingopine]		identified using this technique	
N=C(N)NC(=O)Cc1c(Cl)cccc1Cl [Guanfacine hydrochloride]		identified using this technique	
NC(N)=Nc1nc(CSCCC(N)=NS(N)(=O)=O)cs1 [Famotidine]		identified using this technique	
CC(C(=O)O)c1ccc2c(c1)CC(=O)c1ccccc1S2 (stereo not shown) [zaltoprofen, 2-(6-Oxo-5H-benzo[b][1]benzothiepin-3-yl)propanoic acid]	promote the differentiation of brown adipocyte progenitor cells into brown adipocytes		brown adipocyte formation by light microscopy (CD34+ cells [2]): promote brown adipocyte formation
COc1ccc2c(c1)c(CC(=O)OCC(=O)O)c(C)n2C(=O)c1ccc(Cl)cc1 [Acemethacin]	promote the differentiation of brown adipocyte progenitor cells into brown adipocytes		
COc1ccc2c(c1)c(CC(=O)O)c(C)n2C(=O)c1ccc(Cl)cc1 [Indomethacin]	promote the differentiation of brown adipocyte progenitor cells into brown adipocytes		
Cc1cccc(Nc2ccccc2C(=O)O)c1C [Mefenamic acid]	promote the differentiation of brown adipocyte progenitor cells into brown adipocytes		
O=C(O)CCc1nc(-c2ccccc2)c(-c2ccccc2)o1 [oxaprozin, 3-(4,5-Diphenyloxazol-2-yl)propionic acid]	promote the differentiation of brown adipocyte progenitor cells into brown adipocytes		body fat mass (DIO mice; MRI): significant decreases; body weight (DIO mice): significant decreases; glycemia (DIO mice): significant decreases; plasma insulin (DIO mice): significant decreases; plasma leptin (DIO mice): significant decreases
COc1cc2c(c(OC)c1OC)-c1ccc(OC)c(=O)cc1[C@@H](NC(C)=O)CC2 [Colchicine]		identified using this technique	
O=C(O)Cc1ccccc1Nc1c(Cl)cccc1Cl [Diclofenac]	promote the differentiation of brown adipocyte progenitor cells into brown adipocytes		
CN(C)C(=N)N=C(N)N [Metformin]		identified using this technique	
CCSc1ccc2c(c1)N(CCCN1CCN(C)CC1)c1ccccc1S2 [Thiethylperazine]		identified using this technique	
COC(=O)[C@H]1[C@H]2C[C@@H]3c4[nH]c5cc(OC)ccc5c4CCN3C[C@H]2C[C@@H](OC(=O)c2cc(OC)c(OC)c(OC)c2)[C@@H]1OC [Reserpine]		identified using this technique	
CCC1=C(C)CN(C(=O)NCCc2ccc(S(=O)(=O)NC(=O)N[C@H]3CC[C@H](C)CC3)cc2)C1=O [Glimepiride]	promote the differentiation of brown adipocyte progenitor cells into brown adipocytes		
